The assay concerns the target Human FXR (NR1H4) (Homo sapiens (Human), UniProt Q96RI1). Description: Human FXR (NR1H4) Assay (Gal4 promoter driven luciferase reporter transactivation in CHO cells). It counts as cell-based. From the text: Assays Human FXR (NR1H4) Assay
Determination of a ligand mediated Gal4 promoter driven transactivation to quantify ligand binding mediated activation of FXR. FXR Reporter Assay kit purchased from Indigo Bioscience (Catalogue number: IB00601) to determine the potency and efficacy of compound developed by Enanta that can induce FXR activation. The principle application of this reporter assay system is to quantify functional activity of human FXR. The assay utilizes non-human mammalian cells, CHO (Chinese hamster ovary) cells engineered to express human NR1H4 protein (referred to as FXR). Reporter cells also incorporate the cDNA encoding beetle luciferase which catalyzes the substrates and yields photon emission. Luminescence intensity of the reaction is quantified using a plate-reading luminometer, Envision. Reporter Cells include the luciferase reporter gene functionally linked to an FXR responsive promoter. Thus, quantifying changes in luciferase expression in the treated reporter cells provides a sensitive surrogate measure of the changes in FXR activity. […] The assay is according to the manufacturer's instructions. In brief, the assay was performed in white, 96 well plates using final volume of 200 ul containing cells with different doses of compounds. Retrieve Reporter Cells from −80° C. storage. Perform a rapid thaw of the frozen cells by transferring a 10 ml volume of 37° C. cell recovery medium into the tube of frozen cells. Recap the tube of Reporter Cells and immediately place it in a 37° C. water bath for 5-10 minutes. Retrieve the tube of Reporter Cell Suspension from the water bath. Sanitize the outside surface of the tube with a 70% alcohol swab, and then transfer it into the cell culture hood. Dispense 100 μl of cell suspension into each well of the 96-well Assay Plate. Transfer the plate into 37° C. incubator, allowing the cells adherent to the bottom of the well. Dilute compounds in Dilution Plate (DP), and administrate to cells at Assay Plate (AP). DMSO content of the samples was kept at 0.2%. Cells were incubated for additional 22 hours before luciferase activities were measured. Thirty minutes before intending to quantify FXR activity, remove Detection Substrate and Detection Buffer from the refrigerator and place them in a low-light area so that they may equilibrate to room temperature. Remove the plate's lid and discard all media contents by ejecting it into an appropriate waste container. Gently tap the inverted plate onto a clean absorbent paper towel to remove residual droplets. Cells will remain tightly adhered to well bottoms. Add 100 μl of luciferase detection reagent to each well of the assay plate. Allow the assay plate to rest at room temperature for at least 5 minutes following the addition of LDR. Set the instrument (Envision) to perform a single 5 second “plate shake” prior to reading the first assay well. Read time may be 0.5 second (500 mSec) per well.

Setting [1] is: FXR agonistic potency range; CHO reporter cells expressing human NR1H4, 22 hours incubation; read-out: EC50.
The mark [2] stands for this setting: efficacy normalized to chenodeoxycholic acid (CDCA) set as 100%.

As usually defined, the EC50 is the concentration giving half of the maximal effect.

Where two headings read alike, the source gives them in different places.

Sequence of Human FXR (NR1H4) (Q96RI1 whole entry, the tested form may be a part): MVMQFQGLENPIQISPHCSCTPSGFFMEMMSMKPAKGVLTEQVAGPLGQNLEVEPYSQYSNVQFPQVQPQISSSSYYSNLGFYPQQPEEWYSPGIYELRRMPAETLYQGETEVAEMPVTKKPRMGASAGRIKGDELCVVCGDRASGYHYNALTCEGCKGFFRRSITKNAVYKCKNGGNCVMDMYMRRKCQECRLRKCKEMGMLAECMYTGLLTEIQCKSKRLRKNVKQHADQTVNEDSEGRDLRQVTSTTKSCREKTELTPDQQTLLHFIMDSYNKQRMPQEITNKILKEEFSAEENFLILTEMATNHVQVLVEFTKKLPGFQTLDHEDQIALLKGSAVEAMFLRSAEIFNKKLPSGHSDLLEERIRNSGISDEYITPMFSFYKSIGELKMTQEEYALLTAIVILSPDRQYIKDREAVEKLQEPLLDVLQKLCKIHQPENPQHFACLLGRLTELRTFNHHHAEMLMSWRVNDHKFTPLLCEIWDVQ

For `CC[C@H]1[C@@H](O)[C@@H]2[C@H](CC[C@]3(C)[C@@H]([C@H](C)CCC(=O)NS(C)(=O)=O)CC[C@@H]23)[C@@]2(C)CC[C@@H](O)C[C@@H]12` [Example 1], under “CHO; read-out: Efficacy (%)”, the Emax is 254%. For the same compound, the EC50 (read-out: EC50) fell in the range of 100 to 1000 nM.
On to `CCC1C(O)C2C3CCC(C(C)CCC(=O)NS(=O)(=O)CC)C3(C)CCC2C2(C)CCC(O)CC12` (stereo not drawn) [Example 2], for which, under setting [1], the EC50 was in the range of 100 to 1000 nM. The “Efficacy (%)” value under setting [2] was 258%.
As to `CCC1C(O)C2C3CCC(C(C)CCC(=O)NS(=O)(=O)C(C)C)C3(C)CCC2C2(C)CCC(O)CC12` (stereo not drawn) [Example 3], under setting [1], the EC50 lay within 100 to 1000 nM. In addition, the “Efficacy (%)” value under setting [2] turned out to be 289%.
In the same order, the values of `CCCCS(=O)(=O)NC(=O)CCC(C)C1CCC2C3C(O)C(CC)C4CC(O)CCC4(C)C3CCC12C` (stereo not drawn) [Example 4] are 100 to 1000 nM and 376%.
In the same order, the values of `CCC1C(O)C2C3CCC(C(C)CCC(=O)NS(=O)(=O)C(C)(C)C)C3(C)CCC2C2(C)CCC(O)CC12` (stereo not drawn) [Example 5] are less than 100 nM and 218%.
With `CCCS(=O)(=O)NC(=O)CCC(C)C1CCC2C3C(O)C(CC)C4CC(O)CCC4(C)C3CCC12C` (stereo not drawn) [Example 6], under setting [1], the EC50 was 100 to 1000 nM. Besides, under setting [2], the “Efficacy (%)” value came out at 295%.
In the same order, the values of `CCC1C(O)C2C3CCC(C(C)CCC(=O)NS(=O)(=O)Cc4ccccc4)C3(C)CCC2C2(C)CCC(O)CC12` (stereo not drawn) [Example 7] are 1000 to 10000 nM and 178%.
As for `C=CCS(=O)(=O)NC(=O)CCC(C)C1CCC2C3C(O)C(CC)C4CC(O)CCC4(C)C3CCC12C` (stereo not drawn) [Example 9], under setting [1], the EC50 fell in the range of 100 to 1000 nM. For the same compound, the “Efficacy (%)” value under setting [2] was 248%.
The matching figures for `CCC1C(O)C2C3CCC(C(C)CCC(=O)NS(=O)(=O)C(F)(F)F)C3(C)CCC2C2(C)CCC(O)CC12` (stereo not drawn) [Example 10]: 1000 to 10000 nM and 244%.
In the same order, the values of `CCC1C(O)C2C3CCC(C(C)CCC(=O)NS(=O)(=O)C4CC4)C3(C)CCC2C2(C)CCC(O)CC12` (stereo not drawn) [Example 11] are 100 to 1000 nM and 315%.
The matching figures for `CCC1C(O)C2C3CCC(C(C)CCC(=O)NS(=O)(=O)C4(C)CC4)C3(C)CCC2C2(C)CCC(O)CC12` (stereo not drawn) [Example 12]: 100 to 1000 nM and 331%.
As to `CCC1C(O)C2C3CCC(C(C)CCC(=O)NS(=O)(=O)N4CCOCC4)C3(C)CCC2C2(C)CCC(O)CC12` (stereo not drawn) [Example 16], under setting [1], the EC50 fell in the range of 1000 to 10000 nM. Besides, the “Efficacy (%)” value under setting [2] was determined as 219%.
For the compound `CCC1C(O)C2C3CCC(C(C)CCC(=O)NS(N)(=O)=O)C3(C)CCC2C2(C)CCC(O)CC12` (stereo not drawn) [Example 17], the EC50 under setting [1] is 1000 to 10000 nM. The “Efficacy (%)” value under setting [2] turned out to be 349%.
The matching figures for `CC[C@H]1[C@@H](O)[C@@H]2[C@H](CC[C@]3(C)[C@@H]([C@H](C)CCC(=O)NS(=O)(=O)c4ccccc4)CC[C@@H]23)[C@@]2(C)CC[C@@H](O)C[C@@H]12` [Example 18]: less than 100 nM and 329%.
In the same order, the values of `CCC1C(O)C2C3CCC(C(C)CCC(=O)NS(=O)(=O)c4ccccc4N)C3(C)CCC2C2(C)CCC(O)CC12` (stereo not drawn) [Example 19] are 100 to 1000 nM and 176%.
In the same order, the values of `CCC1C(O)C2C3CCC(C(C)CCC(=O)NS(=O)(=O)c4ccccc4C)C3(C)CCC2C2(C)CCC(O)CC12` (stereo not drawn) [Example 20] are 100 to 1000 nM and 348%.
For `CCC1C(O)C2C3CCC(C(C)CCC(=O)NS(=O)(=O)c4ccccc4F)C3(C)CCC2C2(C)CCC(O)CC12` (stereo not drawn) [Example 22], the EC50 under setting [1] was in the range of 100 to 1000 nM. The “Efficacy (%)” value under setting [2] is on record as 259%.
In the same order, the values of `CCC1C(O)C2C3CCC(C(C)CCC(=O)NS(=O)(=O)c4ccccc4[N+](=O)[O-])C3(C)CCC2C2(C)CCC(O)CC12` (stereo not drawn) [Example 23] are 100 to 1000 nM and 280%.
The matching figures for `CCC1C(O)C2C3CCC(C(C)CCC(=O)NS(=O)(=O)c4ccc(C)cc4)C3(C)CCC2C2(C)CCC(O)CC12` (stereo not drawn) [Example 24]: less than 100 nM and 271%.
The matching figures for `CCC1C(O)C2C3CCC(C(C)CCC(=O)NS(=O)(=O)F)C3(C)CCC2C2(C)CCC(O)CC12` (stereo not drawn) [Example 25]: 1000 to 10000 nM and 347%.
As to `CC[C@@H]1C2C[C@H](O)CCC2(C)[C@H]2CCC3(C)C([C@H](C)CCC(=O)NS(=O)(=O)c4ccccc4Cl)CC[C@H]3[C@@H]2[C@@H]1O` (stereo partly drawn) [Example 451], the Emax (CHO; read-out: Efficacy (%)) was 274%. The EC50 (read-out: EC50) was 100 to 1000 nM.
`CC[C@@H]1C2C[C@H](O)CCC2(C)[C@H]2CCC3(C)C([C@H](C)CCC(=O)NS(=O)(=O)c4cccc([N+](=O)[O-])c4)CC[C@H]3[C@@H]2[C@@H]1O` (stereo partly drawn) [Example 452] had an EC50 of 1000 to 10000 nM. Besides, the Emax (CHO, read-out: Efficacy (%)) came to 292%.
With `CC[C@@H]1C2C[C@H](O)CCC2(C)[C@H]2CCC3(C)C([C@H](C)CCC(=O)NS(=O)(=O)c4ccc(F)cc4)CC[C@H]3[C@@H]2[C@@H]1O` (stereo partly drawn) [Example 453], the Emax (CHO; read-out: Efficacy (%)) is 240%. Also, the EC50 (read-out: EC50) lay within 100 to 1000 nM.
In the same order, the values of `CC[C@@H]1C2C[C@H](O)CCC2(C)[C@H]2CCC3(C)C([C@H](C)CCC(=O)NS(=O)(=O)c4ccc([N+](=O)[O-])cc4)CC[C@H]3[C@@H]2[C@@H]1O` (stereo partly drawn) [Example 454] are 353% and 100 to 1000 nM.
With `CC[C@@H]1C2C[C@H](O)CCC2(C)[C@H]2CCC3(C)C([C@H](C)CCC(=O)NS(=O)(=O)c4ccc(OC)cc4)CC[C@H]3[C@@H]2[C@@H]1O` (stereo partly drawn) [Example 455], the Emax (CHO, read-out: Efficacy (%)) was 417%. The EC50 under setting [1] is less than 100 nM.
For `CC[C@@H]1C2C[C@H](O)CCC2(C)[C@H]2CCC3(C)C([C@H](C)CCC(=O)NS(=O)(=O)c4cccc(F)c4)CC[C@H]3[C@@H]2[C@@H]1O` (stereo partly drawn) [Example 456], the Emax (CHO, read-out: Efficacy (%)) was determined as 415%. Besides, the EC50 under setting [1] was less than 100 nM.
For the compound `CC[C@@H]1C2C[C@H](O)CCC2(C)[C@H]2CCC3(C)C([C@H](C)CCC(=O)NS(=O)(=O)c4cccc(C)c4)CC[C@H]3[C@@H]2[C@@H]1O` (stereo partly drawn) [Example 457], the Emax (CHO, read-out: Efficacy (%)) was found to be 382%. Further, under setting [1], the EC50 is less than 100 nM.
Regarding `CC[C@@H]1C2C[C@H](O)CCC2(C)[C@H]2CCC3(C)C([C@H](C)CCC(=O)NS(=O)(=O)c4ccccc4C(F)(F)F)CC[C@H]3[C@@H]2[C@@H]1O` (stereo partly drawn) [Example 459], the Emax (CHO; read-out: Efficacy (%)) was found to be 310%. Moreover, where the note is “read-out: EC50”, the EC50 was in the range of 100 to 1000 nM.
For the compound `CC[C@@H]1C2C[C@H](O)CCC2(C)[C@H]2CCC3(C)C([C@H](C)CCC(=O)NS(=O)(=O)c4cccc(C(F)(F)F)c4)CC[C@H]3[C@@H]2[C@@H]1O` (stereo partly drawn) [Example 460], where the note is “CHO, read-out: Efficacy (%)”, the Emax was found to be 291%. Besides, the EC50 under setting [1] was less than 100 nM.
In the case of `CC[C@@H]1C2C[C@H](O)CCC2(C)[C@H]2CCC3(C)C([C@H](C)CCC(=O)NS(=O)(=O)c4ccc(C#N)cc4)CC[C@H]3[C@@H]2[C@@H]1O` (stereo partly drawn) [Example 461], the Emax (CHO; read-out: Efficacy (%)) was 283%. The EC50 (read-out: EC50) was 100 to 1000 nM.
For the compound `CC[C@@H]1C2C[C@H](O)CCC2(C)[C@H]2CCC3(C)C([C@H](C)CCC(=O)NS(=O)(=O)c4ccccn4)CC[C@H]3[C@@H]2[C@@H]1O` (stereo partly drawn) [Example 462], the Emax (CHO; read-out: Efficacy (%)) is 297%. Moreover, where the note is “read-out: EC50”, the EC50 was 100 to 1000 nM.
In the same order, the values of `CC[C@@H]1C2C[C@H](O)CCC2(C)[C@H]2CCC3(C)C([C@H](C)CCC(=O)NS(=O)(=O)c4ccncc4)CC[C@H]3[C@@H]2[C@@H]1O` (stereo partly drawn) [Example 463] are 251% and 1000 to 10000 nM.
In the case of `CC[C@@H]1C2C[C@H](O)CCC2(C)[C@H]2CCC3(C)C([C@H](C)CCC(=O)NS(=O)(=O)c4cc(F)cc(F)c4)CC[C@H]3[C@@H]2[C@@H]1O` (stereo partly drawn) [Example 464], the Emax (CHO; read-out: Efficacy (%)) amounted to 293%. Also, the EC50 (read-out: EC50) is 100 to 1000 nM.
Take `CC[C@@H]1C2C[C@H](O)CCC2(C)[C@H]2CCC3(C)C([C@H](C)CCC(=O)NS(=O)(=O)c4ccc(C)c(F)c4)CC[C@H]3[C@@H]2[C@@H]1O` (stereo partly drawn) [Example 465]: the Emax (CHO, read-out: Efficacy (%)) came to 303%. Also, under setting [1], the EC50 is less than 100 nM.
Consider `CC[C@@H]1C2C[C@H](O)CCC2(C)[C@H]2CCC3(C)C([C@H](C)CCC(=O)NS(=O)(=O)c4cccnc4)CC[C@H]3[C@@H]2[C@@H]1O` (stereo partly drawn) [Example 466], for which the Emax (CHO; read-out: Efficacy (%)) was found to be 258%. For the same compound, the half-maximal effective concentration (EC50) (read-out: EC50) is 1000 to 10000 nM.
The matching figures for `CC[C@@H]1C2C[C@H](O)CCC2(C)[C@H]2CCC3(C)C([C@H](C)CCC(=O)NS(=O)(=O)c4cccs4)CC[C@H]3[C@@H]2[C@@H]1O` (stereo partly drawn) [Example 467]: 315% and 100 to 1000 nM.

For the origin of these results see patent US10266560B2, “Bile acid analogs as FXR/TGR5 agonists and methods of use thereof” (Enanta Pharmaceuticals, Inc., priority 2014, dated 2019).
